Measurements reported in PubChem BioAssay AID1919010 (Molecular Pharmacology Branch, DTP, NCI, 2023).

Test system: Hs578T complex spheroid growth, percent test/control
Assay: Anticancer human tumor Hs578T cell line growth inhibition [AhR];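 further: luminescent viability signal as a proxy for spheroid growth; spheroids exposed to agents for one week after three days of growth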
Settings: for IC50: curve of first compound; for viability, T/C: stronger effect = lower value
In short: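 Agents were dosed in half-log steps down from roughly clinical Cmax, or from 10 microM where Cmax was unknown, alone and with AhR antagonists. Read-out: percent test/control growth of tumor spheroids containing HUVEC and MSC stromal cells.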

[1] = second compound 0.1 µM, first compound 0.0316 µM
[2] = second compound 0.1 µM, first compound 0.1 µM
[3] = second compound 0.1 µM, first compound 0.316 µM
[4] = second compound 0.1 µM, first compound 1 µM
[5] = second compound 0.316 µM, first compound 0.0316 µM
[6] = second compound 0.316 µM, first compound 0.1 µM
[7] = second compound 0.316 µM, first compound 0.316 µM
[8] = second compound 0.316 µM, first compound 1 µM
[9] = second compound 1 µM, first compound 0.0316 µM
[10] = second compound 1 µM, first compound 0.1 µM
[11] = second compound 1 µM, first compound 0.316 µM
[12] = second compound 1 µM, first compound 1 µM
[13] = second compound 3.16 µM, first compound 0.0316 µM
[14] = second compound 3.16 µM, first compound 0.1 µM
[15] = second compound 3.16 µM, first compound 0.316 µM
[16] = second compound 3.16 µM, first compound 1 µM
[17] = second compound 10 µM, first compound 0.0316 µM
[18] = second compound 10 µM, first compound 0.1 µM
[19] = second compound 10 µM, first compound 0.316 µM
[20] = second compound 10 µM, first compound 1 µM

Structure (SMILES): CC1COCCN1c1cc(-c2ccnn2C)c2ccnc(-c3ccn[nH]3)c2n1 (stereo not given) + Cc1ccccc1N=Nc1ccc(NC(=O)c2ccnn2C)c(C)c1
- IC50 (second compound 0.1 µM): 315 nM
- IC50 (second compound 0.316 µM): 292 nM
- IC50 (second compound 1 µM): 266 nM
- IC50 (second compound 3.16 µM): 283 nM
- IC50 (second compound 10 µM): 182 nM
- viability, T/C (second compound 0.1 µM, first compound 0.00316 µM): 107%
- viability, T/C (second compound 0.1 µM, first compound 0.01 µM): 109%
- viability, T/C [1]: 97%
- viability, T/C [2]: 80.8%
- viability, T/C [3]: 48.9%
- viability, T/C [4]: 35%
- viability, T/C (second compound 0.316 µM, first compound 0.00316 µM): 105%
- viability, T/C (second compound 0.316 µM, first compound 0.01 µM): 128%
- viability, T/C [5]: 109%
- viability, T/C [6]: 88%
- viability, T/C [7]: 46.6%
- viability, T/C [8]: 39.1%
- viability, T/C (second compound 1 µM, first compound 0.00316 µM): 106%
- viability, T/C (second compound 1 µM, first compound 0.01 µM): 109%
- viability, T/C [9]: 109%
- viability, T/C [10]: 85.6%
- viability, T/C [11]: 44.2%
- viability, T/C [12]: 32.1%
- viability, T/C (second compound 3.16 µM, first compound 0.00316 µM): 106%
- viability, T/C (second compound 3.16 µM, first compound 0.01 µM): 97.5%
- viability, T/C [13]: 89.7%
- viability, T/C [14]: 78%
- viability, T/C [15]: 43.5%
- viability, T/C [16]: 37%
- viability, T/C (second compound 10 µM, first compound 0.00316 µM): 69.1%
- viability, T/C (second compound 10 µM, first compound 0.01 µM): 64.7%
- viability, T/C [17]: 65%
- viability, T/C [18]: 59.8%
- viability, T/C [19]: 40.1%
- viability, T/C [20]: 41.9%

Structure (SMILES): CC1COCCN1c1cc(C2(S(C)(=N)=O)CC2)nc(-c2ccnc3[nH]ccc23)n1 (stereo not given) + Cc1ccccc1N=Nc1ccc(NC(=O)c2ccnn2C)c(C)c1
- IC50 (second compound 0.1 µM): 9250 nM
- IC50 (second compound 0.316 µM): > 10000 nM
- IC50 (second compound 1 µM): 9240 nM
- IC50 (second compound 3.16 µM): > 10000 nM
- IC50 (second compound 10 µM): > 10000 nM
- viability, T/C [1]: 110%
- viability, T/C [2]: 102%
- viability, T/C [3]: 102%
- viability, T/C [4]: 96.6%
- viability, T/C (second compound 0.1 µM, first compound 3.16 µM): 77.9%
- viability, T/C (second compound 0.1 µM, first compound 10 µM): 47.9%
- viability, T/C [5]: 101%
- viability, T/C [6]: 101%
- viability, T/C [7]: 100%
- viability, T/C [8]: 93.4%
- viability, T/C (second compound 0.316 µM, first compound 3.16 µM): 76.9%
- viability, T/C (second compound 0.316 µM, first compound 10 µM): 52.4%
- viability, T/C [9]: 94.6%
- viability, T/C [10]: 102%
- viability, T/C [11]: 99.5%
- viability, T/C [12]: 86.3%
- viability, T/C (second compound 1 µM, first compound 3.16 µM): 73.7%
- viability, T/C (second compound 1 µM, first compound 10 µM): 48.1%
- viability, T/C [13]: 85.4%
- viability, T/C [14]: 93.3%
- viability, T/C [15]: 89.7%
- viability, T/C [16]: 84.4%
- viability, T/C (second compound 3.16 µM, first compound 3.16 µM): 69.2%
- viability, T/C (second compound 3.16 µM, first compound 10 µM): 51.4%
- viability, T/C [17]: 62.9%
- viability, T/C [18]: 62%
- viability, T/C [19]: 76.1%
- viability, T/C [20]: 68.5%
- viability, T/C (second compound 10 µM, first compound 3.16 µM): 61.6%
- viability, T/C (second compound 10 µM, first compound 10 µM): 47.7%
